# Source: ChEMBL document CHEMBL1201862, “PubChem BioAssay data set” (2004)
#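 Cultured in 96-well plates, cells were exposed to test compound for 48 hours across five concentrations. The concentration for 50% growth inhibition is given as GI50.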 Active and inactive are the calls of the source. Cut-off read from the data, not from the text of the source: active = GI50 up to about 1.1 µM and inactive = higher.
# Experiments:
# Test in all cases: NCI tumour cell line growth inhibition, 48 h
# [1] = test system: MCF7
# [2] = test system: MOLT-4
# [3] = test system: SN12C
# [4] = test system: IGROV-1
# [5] = test system: OVCAR-3
# [6] = test system: HOP-62
# [7] = test system: OVCAR-4
# [8] = test system: SK-OV-3
# [9] = test system: SW-620
# [10] = test system: SNB-19
# [11] = test system: SK-MEL-5
# [12] = test system: NCI-H226
# [13] = test system: UACC-62
# [14] = test system: SK-MEL-2
# [15] = test system: HL-60
# [16] = test system: SNB-75
# [17] = test system: HCT-15
# [18] = test system: A549
# [19] = test system: M14
# [20] = test system: Hs-578T
SMILES,GI50 [1],GI50 [2],GI50 [3],GI50 [4],GI50 [5],GI50 [6],GI50 [7],GI50 [8],GI50 [9],GI50 [10],GI50 [11],GI50 [12],GI50 [13],GI50 [14],GI50 [15],GI50 [16],GI50 [17],GI50 [18],GI50 [19],GI50 [20]
Nc1ncnc2c1ncn2C1CCC(CO)O1 (configuration not stated),> 100 µM (inactive),> 100 µM (inactive),> 100 µM (inactive),> 100 µM (inactive),> 100 µM (inactive),> 100 µM (inactive),> 82.8 µM (inactive),> 77.6 µM (inactive),> 100 µM (inactive),> 100 µM (inactive),> 100 µM (inactive),> 67.9 µM (inactive),> 100 µM (inactive),> 100 µM (inactive),> 100 µM (inactive),> 100 µM (inactive),> 100 µM,> 100 µM (inactive),,
CCOC(=O)C(COS(C)(=O)=O)(COS(C)(=O)=O)C(=O)OCC,> 100 µM (inactive),> 100 µM (inactive),> 100 µM (inactive),,> 100 µM (inactive),,> 100 µM (inactive),> 100 µM (inactive),> 100 µM (inactive),> 100 µM (inactive),> 100 µM (inactive),> 100 µM (inactive),,,,> 100 µM (inactive),> 100 µM,> 100 µM (inactive),> 100 µM (inactive),> 100 µM (inactive)
COc1cccc(/C=N/n2c(-c3ccccc3)n[nH]c2=O)c1,75.5 µM (inactive),> 100 µM (inactive),87.7 µM (inactive),,> 100 µM (inactive),25.9 µM (inactive),> 100 µM (inactive),44.2 µM (inactive),> 100 µM (inactive),35.7 µM (inactive),,43.7 µM (inactive),72.4 µM (inactive),34.6 µM (inactive),,34.3 µM (inactive),> 100 µM,91.2 µM (inactive),> 100 µM (inactive),22.7 µM (inactive)
COc1ccc2c(c1)[n+]([O-])c(C#N)c(N1CCN(c3ccc([N+](=O)[O-])cc3)CC1)[n+]2[O-],,,6.37 µM (inactive),1.49 µM (inactive),9.91 µM (inactive),4.24 µM (inactive),3.94 µM (inactive),8.09 µM (inactive),5.55 µM (inactive),5.22 µM (inactive),3.59 µM (inactive),10.7 µM (inactive),3.76 µM (inactive),> 57.4 µM (inactive),5.42 µM (inactive),8.53 µM (inactive),3.16 µM,3.08 µM (inactive),4.52 µM (inactive),2.55 µM (inactive)
N/N=C(\N)SCc1ccc(N=C=S)cc1,,> 100 µM (inactive),> 100 µM (inactive),> 100 µM (inactive),,> 100 µM (inactive),> 100 µM (inactive),> 100 µM (inactive),> 100 µM (inactive),> 100 µM (inactive),> 100 µM (inactive),,> 100 µM (inactive),> 100 µM (inactive),> 100 µM (inactive),> 100 µM (inactive),> 100 µM,> 100 µM (inactive),,> 100 µM (inactive)
CCCCn1cnnc1NS(=O)(=O)c1cc(C)c(Cl)cc1SCC(=O)O,,> 10 µM (inactive),> 10 µM (inactive),> 10 µM (inactive),> 10 µM (inactive),> 10 µM (inactive),> 10 µM (inactive),> 10 µM (inactive),> 10 µM (inactive),> 10 µM (inactive),> 10 µM (inactive),> 10 µM (inactive),> 10 µM (inactive),> 10 µM (inactive),> 10 µM (inactive),> 10 µM (inactive),> 10 µM,> 10 µM (inactive),> 10 µM (inactive),> 10 µM (inactive)
CNC(=O)CCNC(=O)CCC(=O)N(C)C,> 100 µM (inactive),> 100 µM (inactive),> 100 µM (inactive),,> 100 µM (inactive),> 100 µM (inactive),> 100 µM (inactive),> 100 µM (inactive),> 100 µM (inactive),> 100 µM (inactive),> 100 µM (inactive),,> 100 µM (inactive),> 100 µM (inactive),,,> 100 µM,> 100 µM (inactive),> 100 µM (inactive),
CCOC(=O)c1c(N2CCCC2)ncn(Cc2ccccc2)c1=S,,92.3 µM (inactive),> 100 µM (inactive),> 100 µM (inactive),> 100 µM (inactive),> 100 µM (inactive),91.4 µM (inactive),> 100 µM (inactive),> 100 µM (inactive),> 100 µM (inactive),65.3 µM (inactive),> 100 µM (inactive),63 µM (inactive),> 100 µM (inactive),> 100 µM (inactive),47.6 µM (inactive),> 100 µM,> 100 µM (inactive),> 100 µM (inactive),> 100 µM (inactive)
CCOC(=O)CC1c2ccc(O)cc2OC(=O)C1c1ccc(N)cc1 (configuration not stated),> 100 µM (inactive),> 100 µM (inactive),> 100 µM (inactive),> 100 µM (inactive),> 100 µM (inactive),4.34 µM (inactive),,> 100 µM (inactive),> 100 µM (inactive),> 100 µM (inactive),> 100 µM (inactive),> 100 µM (inactive),> 100 µM (inactive),> 100 µM (inactive),,84.9 µM (inactive),> 100 µM,> 100 µM (inactive),> 100 µM (inactive),66.1 µM (inactive)
CCOC(=O)C(=O)NCCCN1CCOCC1,,> 100 µM (inactive),> 100 µM (inactive),> 100 µM (inactive),> 100 µM (inactive),> 100 µM (inactive),> 100 µM (inactive),> 100 µM (inactive),> 100 µM (inactive),> 100 µM (inactive),> 100 µM (inactive),> 100 µM (inactive),> 100 µM (inactive),> 100 µM (inactive),> 100 µM (inactive),> 100 µM (inactive),> 100 µM,> 100 µM (inactive),> 100 µM (inactive),
NNC1=N/C(=C\c2ccccc2O)C(=O)N1,,21.5 µM (inactive),40.7 µM (inactive),36.2 µM (inactive),35.1 µM (inactive),48.5 µM (inactive),,31.7 µM (inactive),47.1 µM (inactive),73.3 µM (inactive),35 µM (inactive),47.5 µM (inactive),48.1 µM (inactive),63.8 µM (inactive),14.6 µM (inactive),> 100 µM (inactive),6.31 µM,30.9 µM (inactive),27.2 µM (inactive),> 100 µM (inactive)
COc1cc(C(=O)Nc2cc(C(N)=O)cc(OC)c2OC)cc(NC(=O)/C=C/c2ccccc2)c1OC,> 100 µM (inactive),52.4 µM (inactive),18.6 µM (inactive),> 100 µM (inactive),3.68 µM (inactive),,> 100 µM (inactive),> 100 µM (inactive),> 100 µM (inactive),> 100 µM (inactive),,,15.2 µM (inactive),,96.4 µM (inactive),1.71 µM (inactive),> 100 µM,> 100 µM (inactive),,
CC1(C)OC2OC(COC(=O)C=[N+]=[N-])C3OC(C)(C)OC3C2O1 (configuration not stated),> 100 µM (inactive),> 10 µM (inactive),> 100 µM (inactive),> 100 µM (inactive),> 100 µM (inactive),> 100 µM (inactive),> 100 µM (inactive),> 100 µM (inactive),> 100 µM (inactive),> 100 µM (inactive),> 100 µM (inactive),> 100 µM (inactive),> 100 µM (inactive),> 100 µM (inactive),> 100 µM (inactive),,> 100 µM,,,
COC(=O)C(Cc1cn(C(C)n2cc(CC(NC(C)=O)C(=O)OC)c3ccccc32)c2ccccc12)NC(C)=O (configuration not stated),,34 µM (inactive),> 100 µM (inactive),12.9 µM (inactive),> 100 µM (inactive),> 100 µM (inactive),> 100 µM (inactive),> 100 µM (inactive),> 100 µM (inactive),> 100 µM (inactive),73.3 µM (inactive),,98.2 µM (inactive),> 100 µM (inactive),,0.116 µM (active),> 100 µM,> 100 µM (inactive),> 100 µM (inactive),12.5 µM (inactive)
O=Nc1c(-c2c(O)[nH]c3ccc(I)cc23)[nH]c2ccccc12,2.41 µM (inactive),,3.72 µM (inactive),2.13 µM (inactive),5.35 µM (inactive),,3.41 µM (inactive),2.42 µM (inactive),,> 29.7 µM (inactive),4.12 µM (inactive),,2.69 µM (inactive),1.99 µM (inactive),2.61 µM (inactive),5.33 µM (inactive),3.21 µM,3.27 µM (inactive),> 21.6 µM (inactive),
CSc1ccc2c(cc1=O)[C@@H](NC(C)=O)CCc1cc(O)c(O)c(O)c1-2,4.81 µM (inactive),13.2 µM (inactive),20.2 µM (inactive),15.2 µM (inactive),18.6 µM (inactive),18 µM (inactive),17.6 µM (inactive),> 100 µM (inactive),28.1 µM (inactive),29 µM (inactive),32.4 µM (inactive),15.4 µM (inactive),36.1 µM (inactive),32.9 µM (inactive),37.8 µM (inactive),14.3 µM (inactive),17.5 µM,20.1 µM (inactive),18.7 µM (inactive),
